Assay results as given in ChEMBL document CHEMBL3351574, “Antitubercular activity of quinolizidinyl/pyrrolizidinylalkyliminophenazines” (Bioorg Med Chem, 2014).
In brackets after ≈: the same amount, converted by molar mass. Structures can show the parent of a compound that is named as a salt.

Assays:
[1] = system: Mycobacterium tuberculosis; assay: Antitubercular activity against Mycobacterium tuberculosis; assay type: functional
[2] = system: Mycobacterium tuberculosis; assay: microbe, parasite or virus in culture; conditions: isolate 778/10, 168 h
Description: Antitubercular activity against Mycobacterium tuberculosis isolate 778/10 after 7 days by REMA resazurin microtiter assay

[3] = system: Mycobacterium tuberculosis; assay: microbe, parasite or virus in culture; conditions: isolate 439/11, 168 h
Description: Antitubercular activity against Mycobacterium tuberculosis isolate 439/11 after 7 days by REMA resazurin microtiter assay

[4] = system: Mycobacterium tuberculosis; assay: microbe, parasite or virus in culture; conditions: H37Rv, 168 h
Description: Antitubercular activity against Mycobacterium tuberculosis H37Rv after 7 days by REMA resazurin microtiter assay

[5] = system: Mycobacterium tuberculosis; assay: microbe, parasite or virus in culture; conditions: isolate 756/10, 168 h
Description: Antitubercular activity against Mycobacterium tuberculosis isolate 756/10 after 7 days by REMA resazurin microtiter assay

[6] = system: Mycobacterium tuberculosis; assay: microbe, parasite or virus in culture; conditions: isolate 29/10, 168 h
Description: Antitubercular activity against Mycobacterium tuberculosis isolate 29/10 after 7 days by REMA resazurin microtiter assay

[7] = system: Mycobacterium tuberculosis; assay type: functional; conditions: H37Ra, 168 h
[8] = system: Mycobacterium tuberculosis; assay: microbe, parasite or virus in culture; conditions: isolate 917/10, 168 h
Description: Antitubercular activity against Mycobacterium tuberculosis isolate 917/10 after 7 days by REMA resazurin microtiter assay

Mycobacterium avium = assay type: functional; conditions: 168 h
[9] = Cytotoxicity against african green monkey Vero 76 cells assessed as reduction in cell viability after 48 to 96 hrs by MTT method; assay type: cell-based; conditions: chlorocebus sabaeus
[10] = Cytotoxicity against human MT4 cells assessed as reduction in cell viability after 96 hrs by MTT method; assay type: cell-based
in vitro [11] = conditions: human, HMEC1 cells
Description: Selectivity index, ratio of CC50 for human HMEC1 cells to MIC for Mycobacterium tuberculosis H37Rv

in vitro [12] = conditions: monkey, Vero 76 cells
Description: Selectivity index, ratio of CC50 for african green monkey Vero 76 cells to MIC for Mycobacterium tuberculosis H37Rv

in vitro [13] = conditions: human, MT4 cells
Description: Selectivity index, ratio of CC50 for human MT4 cells to MIC for Mycobacterium tuberculosis H37Rv

[14] = Cytotoxicity against human HMEC1 cells assessed as reduction in cell viability after 72 hrs by MTT method; assay type: cell-based, HMEC-1
[15] = Lipophilicity, logD of the compound at pH 7.4; assay type: physicochemical; conditions: buffer
[16] = Half life in human; assay type: ADME, organism-based; conditions: in vivo

C(=C1c2ccccc2-c2ccccc21)[C@@H]1CCCN2CCCC[C@H]12
MIC [1]: 0.156 mg/L (≈ 0.495 µM)

Cc1ccc(NC[C@@H]2CCCN3CCCC[C@H]23)c2c(=O)c3ccccc3sc12
MIC [1]: 1.25 mg/L (≈ 3.18 µM)

c1ccc(Nc2cc3nc4ccccc4n(-c4ccccc4)c-3c/c2=N/CCC23CCCN2CCC3)cc1 [listing 1 of 2 here]
MIC [2]: 1.76 µM (≈ 0.879 µg/mL)
MIC [3]: 0.88 µM (≈ 0.44 µg/mL)
MIC [4]: 0.88 µM (≈ 0.44 µg/mL)
MIC [5]: 28.1 µM
MIC [6]: 0.88 µM (≈ 0.44 µg/mL)
MIC [7]: 3.52 µM (≈ 1.76 µg/mL)
MIC [8]: 7.04 µM
MIC (Mycobacterium avium): 28.1 µM

Cl.Clc1ccc(Nc2cc3nc4ccccc4n(-c4ccc(Cl)cc4)c-3c/c2=N/CCC23CCCN2CCC3)cc1
MIC [2]: 12.5 µM
MIC [3]: 6.25 µM
MIC [4]: > 16 µM
MIC [5]: > 16 mg/L
MIC [6]: 0.78 µM
MIC [7]: 26 µM
MIC [8]: > 16 mg/L
MIC (Mycobacterium avium): > 16 mg/L

c1ccc(Nc2cc3nc4ccccc4n(-c4ccccc4)c-3c/c2=N/C[C@@H]2CCCN3CCCC[C@H]23)cc1
MIC [4]: 15.6 µM (≈ 8.01 µg/mL)
MIC [7]: 15.6 µM (≈ 8.01 µg/mL)

Clc1ccc(Nc2cc3nc4ccccc4n(-c4ccc(Cl)cc4)c-3c/c2=N/C[C@@H]2CCCN3CCCC[C@H]23)cc1
MIC [2]: 0.86 µM (≈ 0.501 µg/mL)
MIC [3]: 0.86 µM (≈ 0.501 µg/mL)
CC50 [9]: 68 µM
CC50 at 96 h [10]: 4.5 µM
selectivity ratio (in vitro [11]): 5.46
MIC [4]: 0.86 µM (≈ 0.501 µg/mL)
MIC [5]: 0.86 µM
MIC [6]: 0.86 µM (≈ 0.501 µg/mL)
selectivity ratio (in vitro [12]): 79.1
selectivity ratio (in vitro [13]): 5.23
CC50 at 72 h [14]: 4.7 µM
MIC [8]: 0.86 µM
logD ([15]; read-out: logD): 5.54
MIC (Mycobacterium avium): 6.87 µM

c1ccc(Nc2cc3nc4ccccc4n(-c4ccccc4)c-3c/c2=N/CC[C@@H]2CCCN3CCCC[C@H]23)cc1
MIC [2]: 1.89 µM (≈ 0.997 µg/mL)
MIC [4]: 7.58 µM (≈ 4 µg/mL)
MIC [6]: 1.89 µM (≈ 0.997 µg/mL)
MIC [7]: 3.79 µM (≈ 2 µg/mL)
MIC [8]: 1.89 µM
MIC (Mycobacterium avium): 15.2 µM

c1ccc(Nc2cc3nc4ccccc4n(-c4ccccc4)c-3c/c2=N/CCC[C@@H]2CCCN3CCCC[C@H]23)cc1
CC50 [9]: 36 µM
CC50 at 96 h [10]: 1.6 µM
selectivity ratio (in vitro [11]): 1.12
MIC [4]: 7.38 µM (≈ 4 µg/mL)
MIC [7]: 7.38 µM (≈ 4 µg/mL)
selectivity ratio (in vitro [12]): 4.88
selectivity ratio (in vitro [13]): 0.22
CC50 at 72 h [14]: 8.3 µM

c1ccc(Nc2cc3nc4ccccc4n(-c4ccccc4)c-3c/c2=N/C[C@H]2CCCN3CCCC[C@H]23)cc1
MIC [2]: 1.95 µM (≈ 1 µg/mL)
MIC [4]: 7.79 µM (≈ 4 µg/mL)
MIC [6]: 1.95 µM (≈ 1 µg/mL)
MIC [7]: 3.89 µM (≈ 2 µg/mL)
MIC [8]: 1.95 µM
MIC (Mycobacterium avium): > 16 mg/L

Cc1ccc(Nc2cc3nc4ccccc4n(-c4ccc(C)cc4)c-3c/c2=N/C[C@@H]2CCCN3CCCC[C@H]23)cc1.Cl
MIC [2]: 6.5 µM
MIC [3]: 3.25 µM
MIC [4]: 6.5 µM
MIC [5]: > 16 mg/L
MIC [6]: 0.81 µM
MIC [7]: 26 µM
MIC [8]: 26 µM
MIC (Mycobacterium avium): 26 µM

Clc1cccc(C(C[C@@H]2CCCN3CCCC[C@H]23)c2ccccc2)c1 (stereo partly specified)
MIC [1]: ≤ 0.1 mg/L

OC(C[C@@H]1CCCN2CCCC[C@H]12)(c1ccccc1)c1ccc(-c2ccccc2)cc1 (stereo partly specified)
MIC [1]: ≤ 1 mg/L

FC(F)(F)c1cccc(NC[C@@H]2CCCN3CCCC[C@H]23)c1
MIC [1]: 2.5 mg/L (≈ 8 µM)

Cc1c(N)ccc(NC[C@@H]2CCCN3CCCC[C@H]23)c1C
MIC [1]: ≤ 0.5 mg/L

Clc1ccc(Nc2cc3nc4ccccc4n(-c4ccc(Cl)cc4)c-3c/c2=N/CC[C@@H]2CCCN3CCCC[C@H]23)cc1
MIC [2]: 0.84 µM (≈ 0.501 µg/mL)
MIC [3]: 0.84 µM (≈ 0.501 µg/mL)
CC50 [9]: 9 µM
CC50 at 96 h [10]: 1.2 µM
selectivity ratio (in vitro [11]): 2.98
MIC [4]: 0.84 µM (≈ 0.501 µg/mL)
MIC [5]: 0.84 µM
MIC [6]: 0.84 µM (≈ 0.501 µg/mL)
selectivity ratio (in vitro [12]): 10.7
selectivity ratio (in vitro [13]): 1.43
CC50 at 72 h [14]: 2.5 µM
MIC [8]: 0.84 µM
logD ([15]; read-out: logD): 5.52
MIC (Mycobacterium avium): 3.35 µM

c1ccc(Nc2cc3nc4ccccc4n(-c4ccccc4)c-3c/c2=N/CC[C@H]2CCCN3CCCC[C@H]23)cc1
MIC [4]: 7.58 µM (≈ 4 µg/mL)
MIC [7]: 7.58 µM (≈ 4 µg/mL)

c1ccc(Nc2cc3nc4ccccc4n(-c4ccccc4)c-3c/c2=N/CCC[C@H]2CCCN3CCCC[C@H]23)cc1
CC50 [9]: 9.6 µM
CC50 at 96 h [10]: 5.8 µM
selectivity ratio (in vitro [11]): 0.74
MIC [4]: 7.38 µM (≈ 4 µg/mL)
MIC [7]: 0.92 µM (≈ 0.498 µg/mL)
selectivity ratio (in vitro [12]): 1.3
selectivity ratio (in vitro [13]): 0.78
CC50 at 72 h [14]: 5.5 µM

Clc1ccc(Nc2cc3nc4ccccc4n(-c4ccc(Cl)cc4)c-3c/c2=N/CC[C@H]2CCCN3CCCC[C@H]23)cc1
MIC [2]: 0.84 µM (≈ 0.501 µg/mL)
MIC [3]: 0.84 µM (≈ 0.501 µg/mL)
CC50 [9]: 9.5 µM
CC50 at 96 h [10]: 1.8 µM
selectivity ratio (in vitro [11]): 2.74
MIC [4]: 0.84 µM (≈ 0.501 µg/mL)
MIC [5]: 0.84 µM
MIC [6]: 0.84 µM (≈ 0.501 µg/mL)
selectivity ratio (in vitro [12]): 11.3
selectivity ratio (in vitro [13]): 2.14
CC50 at 72 h [14]: 2.3 µM
MIC [8]: 0.84 µM
MIC (Mycobacterium avium): 3.35 µM

Clc1ccc(Nc2cc3nc4ccccc4n(-c4ccc(Cl)cc4)c-3c/c2=N/CCC[C@H]2CCCN3CCCC[C@H]23)cc1
MIC [2]: 0.82 µM (≈ 0.501 µg/mL)
MIC [3]: 0.82 µM (≈ 0.501 µg/mL)
CC50 [9]: 9 µM
CC50 at 96 h [10]: 1.5 µM
selectivity ratio (in vitro [11]): 3.78
MIC [4]: 0.82 µM (≈ 0.501 µg/mL)
MIC [5]: 0.82 µM
MIC [6]: 0.82 µM (≈ 0.501 µg/mL)
selectivity ratio (in vitro [12]): 11
selectivity ratio (in vitro [13]): 1.83
CC50 at 72 h [14]: 3.1 µM
MIC [8]: 0.82 µM
MIC (Mycobacterium avium): 3.28 µM

Cc1ccc(Nc2cc3nc4ccccc4n(-c4ccc(C)cc4)c-3c/c2=N/C[C@@H]2CCCN3CCCC[C@H]23)cc1
selectivity ratio (in vitro [11]): 0.4
CC50 at 72 h [14]: 2.6 µM

c1ccc(Nc2cc3nc4ccccc4n(-c4ccccc4)c-3c/c2=N/CCC23CCCN2CCC3)cc1 [listing 2 of 2 here]
selectivity ratio (in vitro [11]): 3.64
CC50 at 72 h [14]: 3.2 µM

Clc1ccc(Nc2cc3nc4ccccc4n(-c4ccc(Cl)cc4)c-3c/c2=N/CCC23CCCN2CCC3)cc1
selectivity ratio (in vitro [11]): < 0.06
CC50 at 72 h [14]: 1.5 µM

CC(C)/N=c1\cc2n(-c3ccc(Cl)cc3)c3ccccc3nc-2cc1Nc1ccc(Cl)cc1 [CLOFAZIMINE]
MIC [2]: 1.06 µM (≈ 0.502 µg/mL)
MIC [3]: 1.06 µM (≈ 0.502 µg/mL)
half-life [16]: 70 days
CC50 [9]: > 100 µM
CC50 at 96 h [10]: 6.8 µM
selectivity ratio (in vitro [11]): 17.6
MIC [4]: 1.06 µM (≈ 0.502 µg/mL)
MIC [5]: 1.06 µM
MIC [6]: 1.06 µM (≈ 0.502 µg/mL)
selectivity ratio (in vitro [12]): > 94
selectivity ratio (in vitro [13]): 6.41
CC50 at 72 h [14]: 18.6 µM
MIC [8]: 1.06 µM
logD [15]: 6.36
MIC (Mycobacterium avium): 4.23 µM

CC[C@@H](CO)NCCN[C@@H](CC)CO [ETHAMBUTOL]
MIC [2]: 7.21 µM (≈ 1.47 µg/mL)
MIC [3]: 1.8 µM (≈ 0.368 µg/mL)
MIC [4]: 14.4 µM (≈ 2.95 µg/mL)
MIC [5]: 14.4 µM
MIC [6]: 3.61 µM (≈ 0.738 µg/mL)
MIC [8]: 14.4 µM

NNC(=O)c1ccncc1 [ISONIAZID]
MIC [2]: 0.91 µM (≈ 0.125 µg/mL)
MIC [3]: 1.82 µM (≈ 0.25 µg/mL)
MIC [4]: 1.82 µM (≈ 0.25 µg/mL)
MIC [5]: 3.65 µM
MIC [6]: 0.91 µM (≈ 0.125 µg/mL)
MIC [8]: 1.82 µM

CO[C@H]1/C=C/O[C@@]2(C)Oc3c(C)c(O)c4c(O)c(c(/C=N/N5CCN(C)CC5)c(O)c4c3C2=O)NC(=O)/C(C)=C\C=C\[C@H](C)[C@H](O)[C@@H](C)[C@@H](O)[C@@H](C)[C@H](OC(C)=O)[C@@H]1C [RIFAMPIN]
MIC [2]: 0.15 µM (≈ 0.123 µg/mL)
MIC [3]: 0.08 µM (≈ 0.0658 µg/mL)
MIC [4]: 0.3 µM (≈ 0.247 µg/mL)
MIC [5]: 0.3 µM
MIC [6]: 0.15 µM (≈ 0.123 µg/mL)
MIC [8]: 0.61 µM

CN[C@@H]1[C@H](O[C@H]2[C@H](O[C@H]3[C@H](O)[C@@H](O)[C@H](N=C(N)N)[C@@H](O)[C@@H]3N=C(N)N)O[C@@H](C)[C@]2(O)C=O)O[C@@H](CO)[C@H](O)[C@H]1O [STREPTOMYCIN SULFATE]
MIC [2]: 0.34 µM
MIC [3]: 0.17 µM
MIC [4]: 0.69 µM
MIC [5]: 0.69 µM
MIC [6]: 0.69 µM
MIC [8]: 0.69 µM
